Data taken from patent US20100075907A1, “NEUROMEDIN U RECEPTOR AGONISTS AND USES THEREOF” (priority 2006, published 2010).
Values belong to the compound of their own block, whether it stands above or below them. Non-standard residues stand in square brackets, D forms with d. Residues, ends and D or L forms follow the SMILES beside them. *: point of attachment. X1 = CC(C)CCC[C@@H](C)[C@H]1CC[C@H]2[C@@H]3CC=C4C[C@@H](OC(=O)C*)CC[C@]4(C)[C@H]3CC[C@]12C; Succinimide(1-Et,3-yl) = CCN1C(=O)CC(*)C1=O

Columns and labels:
Mouse NMUR1-CTG = biological target: T1, Mouse NMUR1-CTG (Mus musculus, UniProt O55040); assay: FLIPR calcium mobilization assay, mouse NMUR1-CTG; assay type: cell-based; design: expressed in transfected cells; host or cells: FLP-In CHO or HEK-293 FLP-In cells (pcDNA5); details: for IC50: functional data
T1 sequence (O55040 1-428): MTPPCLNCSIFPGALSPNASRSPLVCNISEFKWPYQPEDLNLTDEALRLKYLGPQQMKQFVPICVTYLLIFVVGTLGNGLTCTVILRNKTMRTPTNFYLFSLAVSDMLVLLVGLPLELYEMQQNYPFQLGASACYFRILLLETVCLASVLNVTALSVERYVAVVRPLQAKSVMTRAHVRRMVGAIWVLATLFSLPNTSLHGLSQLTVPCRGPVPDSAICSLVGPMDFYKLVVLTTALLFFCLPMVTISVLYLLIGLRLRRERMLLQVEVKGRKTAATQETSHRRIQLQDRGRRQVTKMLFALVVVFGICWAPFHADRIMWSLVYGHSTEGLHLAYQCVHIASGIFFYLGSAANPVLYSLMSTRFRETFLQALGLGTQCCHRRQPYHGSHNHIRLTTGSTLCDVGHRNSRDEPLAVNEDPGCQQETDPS
Source text: (§1) Human, mouse or rat cDNAs encoding NMUR1 or NMUR2 (as described in Howard et al. Nature 406: 70-74 (2000) were subcloned in pcDNA5 (Invitrogen) and transfected into FLP-In CHO cells and HEK-293 FLP-In cells purchased from Invitrogen (Carlsbad, Calif.) using lipofectamine (Invitrogen). The Flp-In system allows integration and expression of a particular gene of interest at a specific genomic location utilizing the Flp recombinase from yeast. The transfected cells were selected by growth in medium containing 200 μg/mL hygromycin (Invitrogen). Populations were frozen at early passage numbers, and these stocks were used for further studies. Stable clones that expressed the mRNAs were identified functionally by FLIPR as well as by RT-PCR. […] Two different rodent NMUR1 cell lines were thus generated: one with the codon as predicted from the genomic databases and another cell line with an engineered methionine (ATG) as the start codon. Additionally, stable cell lines expressing the human receptors were generated in HEK-293/aeq17 cells which stably express the aequorin gene under the CMV promoter. The human NMUR2 cDNA was cloned into pcDNA3.1 and human NMUR1 was subcloned into pIRES-puro (Clontech, Mountain View, Calif.), after transfection cells were selected in media containing G418 and either hygromycin (NMUR2) or puromycin (NMUR1).
(§2) The NMU receptors signal primarily through Gαq/11 proteins; therefore calcium mobilization assays can be utilized for functional activity.
(§3) Stable cell lines expressing human and or rodent NMUR1 or human NMUR2 receptors were plated at a density of 12,000 cells per well overnight on poly-lysine coated 384-well black-walled plates. The following day, the media was removed from the plates and the cells were subsequently loaded with Fluo-3 (Molecular Probes), a calcium sensitive dye, diluted in FLIPR buffer (1× Hank's buffered saline containing 20 mM HEPES, 0.1% BSA, 2.5 mM probenecid (Sigma) and 1.6 mM TR40). All reagents are from Invitrogen unless otherwise noted. Peptide stocks were resuspended in DMSO at a stock concentration of 2 mM and diluted in FLIPR buffer on the day of the experiment to a 4 μM working stock solution.
(§4) After a 90 minute incubation at room-temperature, cell plates were loaded onto a FLIPR (Molecular Devices) to monitor cellular fluorescence (excitation=488 nm; emission=540 nm) before and after compound/peptide addition. Eight to twelve point dose responses were tested on NMUR-expressing cell lines using FLIPR with 1 μM peptide as the highest dose. The response after peptide addition was taken as the maximum fluorescence units minus the fluorescence immediately prior to stimulation for each well. EC50 values were calculated using GraphPad Prism (San Diego, Calif.) software.
In vitro responses of Neuromedin U receptor agonists (NMU1 to NMU25) in the FLIPR assay for human (Table 3), mouse (Table 4) and rat (Table 5) NMUR1 and NMUR2. EC50s are reported in nM values. Percent activity refers to the maximum response at 1 μM compared to the hNMU-25 response at the same concentration. NT=not tested.

hNMUR1 = biological target: T2, hNMUR1 (Homo sapiens, UniProt Q9HB89); assay: In vitro functional assay, HEK-hR1 cells; assay type: cell-based; design: expressed in transfected cells; host or cells: FLP-In CHO or HEK-293 FLP-In cells (pcDNA5); HEK-293/aeq17 lines (pIRES-puro) were also made
T2 sequence (Q9HB89 1-426): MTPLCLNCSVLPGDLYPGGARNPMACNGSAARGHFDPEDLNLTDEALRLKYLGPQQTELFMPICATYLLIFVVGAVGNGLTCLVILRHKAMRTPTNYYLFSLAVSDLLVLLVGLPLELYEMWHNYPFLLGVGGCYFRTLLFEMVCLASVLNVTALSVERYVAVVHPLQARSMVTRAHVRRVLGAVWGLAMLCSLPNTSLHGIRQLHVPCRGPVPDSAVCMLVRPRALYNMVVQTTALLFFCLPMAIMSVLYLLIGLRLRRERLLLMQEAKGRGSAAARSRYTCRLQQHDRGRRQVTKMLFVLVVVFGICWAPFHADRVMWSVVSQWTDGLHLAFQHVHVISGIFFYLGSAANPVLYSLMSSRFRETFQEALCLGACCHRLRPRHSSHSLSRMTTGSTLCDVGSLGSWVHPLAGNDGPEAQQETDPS
Source text: as §1, §2, §3, §4
In addition to FLIPR, NMU receptor function can also be evaluated using an aequorin assay. Stable cell lines expressing the aequorin jelly fish gene can be used to report the activation of GPCRs by monitoring intracellular calcium mobilization. The objective is to identify compounds which specifically stimulate aequorin bioluminescence. Calcium-dependent luminescence is generated by the treatment of cells with the coelenterate luciferin, coelenterazine. Briefly, confluent monolayers of HEK-293/aeq 17 cells expressing hNMUR1 or hNMUR2 are “charged” with coelenterazine (Molecular Probes, Carlsbad, Calif.). Confluent T75 flasks are rinsed with media containing 300 μM glutathione and 0.1% FBS. Cells are incubated at 37° C. for one hour in 8 mL media, 0.1% FBS, 300 μM glutathione, and 20 μM coelenterazine. T75 flasks are subsequently rinsed with 6 mL ECB buffer (140 mM NaCl, 20 mM KCl, 20 mM HEPES, 5 mM glucose, 1 mM MgCl, 1 mM CaCl2, 0.1 mg/mL BSA, PH 7.3-7.4). Cells are removed from the flask in ECB buffer, pelleted, and resuspended at a density of 2×10^5 cells/mL. Agonists are added to the cells and activity is determined using a luminometer. […]

[1] = maximum response at 1 μM compared to hNMU-25, mouse NMUR1-CTG

Compound: CC(C)C[C@@H](NC(=O)[C@H](Cc1ccccc1)NC(=O)[C@H](Cc1ccc(O)cc1)NC(=O)CNC(=O)[C@H](CCCNC(=N)N)NC(=O)[C@H](CO)NC(=O)[C@H](CCC(N)=O)NC(=O)[C@H](CO)NC(=O)[C@H](C)NC(=O)[C@H](Cc1ccccc1)NC(=O)[C@@H]1CCCN1C(=O)[C@H](CO)NC(=O)[C@H](CCC(N)=O)NC(=O)[C@H](Cc1ccccc1)NC(=O)[C@H](CCC(=O)O)NC(=O)[C@H](CCC(=O)O)NC(=O)[C@H](CC(=O)O)NC(=O)[C@@H](NC(=O)[C@H](CCCNC(=N)N)NC(=O)[C@@H](N)Cc1ccccc1)C(C)C)C(=O)N[C@@H](Cc1c[nH]c2ccccc12)C(=O)N[C@@H](CCCNC(=N)N)C(=O)N1CCC[C@H]1C(=O)N[C@@H](CCCNC(=N)N)C(=O)N[C@@H](CC(N)=O)C(N)=O [Agonist H] (H-FRVDEEFQSPFASQSRGYF[dL]WRPRN-NH2; N-terminus assumed)
- IC50 (Mouse NMUR1-CTG; mouse R1-CTG): 66 nM
- % Activity (Mouse NMUR1-CTG; functional, mouse R1-CTG, relative to native hNMU responses): 77%
- % Activity (hNMUR1; Table 8, HEK-hR1, functional): 88%
- IC50 (hNMUR1; Table 8, HEK-hR1, functional): 19 nM

- % Activity (Mouse NMUR1-CTG; [1]): 100%
Compound: CCN1C(=O)CC(SC[C@H](NC(C)=O)C(=O)N[C@@H](Cc2ccccc2)C(=O)N[C@@H](CCCNC(=N)N)C(=O)N[C@H](C(=O)N[C@@H](CC(=O)O)C(=O)N[C@@H](CCC(=O)O)C(=O)N[C@@H](CCC(=O)O)C(=O)N[C@@H](Cc2ccccc2)C(=O)N[C@@H](CCC(N)=O)C(=O)N[C@@H](CO)C(=O)N2CCC[C@H]2C(=O)N[C@@H](Cc2ccccc2)C(=O)N[C@@H](C)C(=O)N[C@@H](CO)C(=O)N[C@@H](CCC(N)=O)C(=O)N[C@@H](CO)C(=O)N[C@@H](CCCNC(=N)N)C(=O)NCC(=O)N[C@@H](Cc2ccc(O)cc2)C(=O)N[C@@H](Cc2ccccc2)C(=O)N[C@@H](CC(C)C)C(=O)N[C@@H](Cc2ccccc2)C(=O)N[C@@H](CCCNC(=N)N)C(=O)N2CCC[C@H]2C(=O)N[C@@H](CCCNC(=N)N)C(=O)N[C@@H](CC(N)=O)C(N)=O)C(C)C)C1=O (stereo partly drawn) [NMU8] (Ac-C(Succinimide(1-Et,3-yl))FRVDEEFQSPFASQSRGYFLFRPRN-NH2)

Compound: CC(=O)N[C@@H](CSCC(=O)O[C@H]1CC[C@@]2(C)C(=CC[C@H]3[C@@H]4CC[C@H]([C@H](C)CCCC(C)C)[C@@]4(C)CC[C@@H]32)C1)C(=O)NCC(=O)N[C@@H](Cc1ccc(O)cc1)C(=O)N[C@@H](Cc1ccccc1)C(=O)N[C@@H](CC(C)C)C(=O)N[C@@H](Cc1ccccc1)C(=O)N[C@@H](CCCNC(=N)N)C(=O)N1CCC[C@H]1C(=O)N[C@@H](CCCNC(=N)N)C(=O)N[C@@H](CC(N)=O)C(N)=O [NMU11] (Ac-C(X1)GYFLFRPRN-NH2)
- % Activity (Mouse NMUR1-CTG; [1]): 65.0%

Compound: H-FRVDEEFQSPFASQSRGYFLFRPRN-NH2 [hNMU-25, reference compound]
- IC50 (Mouse NMUR1-CTG; mouse R1-CTG): 2.9 nM
- % Activity (hNMUR1; Table 9, HEK-hR1, functional): 100%
- EC50 (hNMUR1; Table 9, HEK-hR1, functional): 5.5 nM
